Patent publication US5744424A
Values after ≈ are worked out from the molar mass of the structure shown. Each block holds one compound with its values, some of them ahead of it.

What was measured:
[1] = water; 18° C.; cited from earlier work
plant species = details: cited from earlier work
physchem [2] = experiment: physchem
Source text: where Percent "S" is the per unit volume of N^6 BA expressed as a percentage and "N" is the Normality of the solution after dissolution of N^6 BA in the solution.

[3] = cited from earlier work
turf grasses = experiment: Force required to extract grass sod plugs (root density, FIG. 4)
physchem [4] = details: water koh 0.0025 n
Source text: The solubility data enable address a second underlying problem encountered when the aqueous hydroxide solution is employed.

[5] = cited from earlier work; remark: listed apart in the source

SMILES: [Mg+2].[OH-].[OH-] [magnesium hydroxide]
normality of saturated solution [1]: 8.2

SMILES: [Ca+2].[OH-].[OH-] [Calcium hydroxide]
normality of saturated solution [1]: 9.6

SMILES: [Na+].[OH-] [NaOH, sodium hydroxide]
normality of saturated solution [1]: 21.0

SMILES: [K+].[OH-] [KOH, potassium hydroxide]
normality of saturated solution [1]: 18.0

solubility (physchem [2]; aqueous koh 2.875 n): ~455 mg/mL (≈ 2020 mM)
solubility (physchem [2]; koh in 95% ethanol, organic solvent or mixture): ~540 mg/mL (≈ 2400 mM)
solubility (physchem [4]): 0.062 mg/mL (≈ 0.275 mM)
SMILES: c1ccc(CNc2ncnc3nc[nH]c23)cc1 [N^6 BA]
responses elicited in plants (plant species; general): promotion of cell division, inhibition of respiration, increasing retention of water and drought resistance, enhancing root and top growth with change in root/top ratios as well as shortening plant internodes
chlorophyll retention (plant species; pre and post harvest commodities): increase chlorophyll retention
dissolved concentration in mineral acids ([3]; mineral acids): approximately 5%
solubility in water ([3]; water): about 0.00044 grams per 100 milliliters
efficacy of N^6 BA in presence of iron (turf grasses; large amount of ferrous iron ions): a decrease in the efficacy of N^6 BA

SMILES: O.O.O.O.O.O.O.O=S(=O)([O-])[O-].[Fe+2] [iron, Ferrous sulphate heptahydrate]
practical concentration of iron in liquid spray concentrates [5]: 5-6%
root development (turf grasses; iron to N^6 BA molecular ratio of about 200:1 or greater): substantially decreases root development

SMILES: [OH-].[OH-].[Zn+2] [zinc hydroxide]
normality of saturated solution [1]: 9.4
